Source: patent US4435410A, “3-[2-(3-Alkyl and alkenyl-4-piperidyl)-ethyl]-indoles for inhibiting serotonin uptake and for releasing serotonin” (Pharmindustrie, priority 1981, dated 1984)

Experiments:
[1] = tested on: human blood platelets (release of serotonin); experiment: Release of serotonin from human blood platelets; format: cell-based; details: Platelet, product concentration 5 × 10^-5 moles per liter, compared with controls, read-out: Percent of increased serotonin release
Description: The ability of products to inhibit the uptake of serotonin or to cause its release has been shown on human blood platelets according to J. L. David and Coll. "Platelets Function and Thrombosis, a Review of Methods", p.
The action of the products on the release of serotonin is tested at a concentration of 5×10^-5 moles per liter.

[2] = tested on: human blood platelets (uptake of serotonin); experiment: Inhibition of the uptake of serotonin by human blood platelets; format: cell-based; details: Platelet, read-out: Inhibition of serotonin uptake I50
Excerpt: It is known that the uptake of serotonin by the blood platelets constitutes a good model for the uptake of this amine by the neurons (cf. J. Tuomisto, J. Pharm. Pharmac., 26. 92 (1974). When it is applied to the study of medicaments, a method which makes use of the blood platelets is very attractive from the point of view of allowing human cells to be used, thereby giving it good prospects.
The ability of products to inhibit the uptake of serotonin or to cause its release has been shown on human blood platelets according to J. L. David and Coll. "Platelets Function and Thrombosis, a Review of Methods", p. 335 (Plenum Press, London, 1972).
(1) Inhibition of the uptake of serotonin
The results are expressed by a 50% inhibiting dose or I50 which represents the dose of the product in micromoles per liter, reducing the uptake of serotonin by 50%.

[3] = Acute toxicity in male mice by oral administration; details: mouse, in vivo; male mice CD1, oral, after 3 days' observation, cumulative method
Description: The acute toxicity of the products was determined in male mice CD1 (Charles RIVER) by oral administrations. The LD50 which was calculated after 3 days' observation, by the cumulative method of J. J. Reed and Coll. (Am. J. Hyg. 27, 493-1938) is 225 mg/kg for the compound of Example 1, and about 200 mg/kg for the compound of Example 4.

Compound | activation at 50 µM [1] | IC50 [2] | LD50 at 72 h [3]
C=C[C@H]1CNCC[C@H]1CCc1c[nH]c2ccccc12 [Example 1, 3-[2-(3(R)VINYL-4(R)PIPERIDYL)-ETHYL]-INDOLE] | 84% | 8 nM | 225 mg/kg
CC[C@H]1CNCC[C@H]1CCc1c[nH]c2ccccc12 [Example 2, 3-{2-[3(R)ETHYL-4(R)PIPERIDYL]-ETHYL}-INDOLE] | 75% | 60 nM | 
C=C[C@@H]1CNCC[C@H]1CCc1c[nH]c2ccccc12 [Example 4, 3-{2-[3(S)VINYL-4(R)PIPERIDYL]-ETHYL}-INDOLE] | 91% | 35 nM | ~200 mg/kg
